# pIC50: −log10 of the molar value. Read-outs that look alike come from different tables or passages of the source.
# Tests used:
# [1] = target: CDK-2 enzyme, complexed with cyclin A (Homo sapiens, UniProt P24941); assay: CDK2 enzyme inhibition assay (33P phosphorylation of peptide […], filter plate); type: biochemical; conditions: CDK-2/cyclin A, 0.1 mM ATP, 40 min at 30° C.
# Method in brief: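 Cyclin A–complexed CDK2 (0.4 U/ml) incubated with inhibitor, 0.03 mM peptide, 0.1 mM ATP plus 33P-γ-ATP in HEPES pH 7.5, 7.5 mM Mg acetate, 0.1 mg/ml BSA, 40 min at 30 °C. Stopped with phosphoric acid; phosphorylated peptide captured on filter plates and counted by scintillation.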
# [2] = Cell growth inhibition assay: cytotoxicity by sulforhodamine B (SRB) assay; type: cell-based; conditions: 96 h
# Method: B. Cell Growth Inhibition Assay:
# • 1) Determine cell number by haemocytometer. • 2) Using an 8 channel multipipettor, add 160 μl of the cell suspension ([…] or 2×10^4 cells/ml) to each well of a 96-well microtitre plate. • 3) Incubate overnight at 37° C. in a CO2 incubator. Day 2 • 4) Stock solutions of drugs are prepared, and serial dilutions of each drug are performed in medium to give final concentrations in wells. • 5) Using a multipipettor, 40 μl of drug (at 5× final concentration) is added to quadruplicate wells. • 6) Control wells are at either side of the 96 well plates, where 40 μl of medium is added. • 7) Incubate plates in CO2 incubator for 4 days Day 6 • 8) Tip off medium into sink and immerse plate slowly into 10% ice cold trichloroacetic acid (TCA). Leave for about 30 mins on ice. • 9) Wash plates three times in tap water by immersing the plates into baths of tap water and tipping it off. • 10) Dry in incubator. • 11) Add 100 μl of 0.4% SRB in 1% acetic acid to each well (except the last row right hand)of the 96 well plate, this is the 0% control, ie no drug, no stain. The first row will be the 100% control with no drug, but with stain). Leave for 5 mins. • 12) Wash off unbound SRB stain with four washes of 1% acetic acid. • 13) Dry plates in incubator. • 14) Solubilise SRB using 100 μl of 10 mM Tris base and put plates on plate shaker for 5 mins. • 15) Determine absorbance at 540 nm using a plate reader. Calculate mean absorbance for quadruplicate wells and express as a percentage of value for control, untreated wells.
# Plot % absorbance values versus log drug concentration and determine the IC50.
# PDK1 enzyme = target: T1, PDK1 enzyme (Homo sapiens, UniProt O15530); assay: PDK1 kinase inhibition assay (33P phosphorylation of synthetic peptide, filter plate); type: biochemical; conditions: 0.01 mM ATP, 60 min at 30° C.; read-out: PDK1 IC50
# T1 sequence (O15530 1-556): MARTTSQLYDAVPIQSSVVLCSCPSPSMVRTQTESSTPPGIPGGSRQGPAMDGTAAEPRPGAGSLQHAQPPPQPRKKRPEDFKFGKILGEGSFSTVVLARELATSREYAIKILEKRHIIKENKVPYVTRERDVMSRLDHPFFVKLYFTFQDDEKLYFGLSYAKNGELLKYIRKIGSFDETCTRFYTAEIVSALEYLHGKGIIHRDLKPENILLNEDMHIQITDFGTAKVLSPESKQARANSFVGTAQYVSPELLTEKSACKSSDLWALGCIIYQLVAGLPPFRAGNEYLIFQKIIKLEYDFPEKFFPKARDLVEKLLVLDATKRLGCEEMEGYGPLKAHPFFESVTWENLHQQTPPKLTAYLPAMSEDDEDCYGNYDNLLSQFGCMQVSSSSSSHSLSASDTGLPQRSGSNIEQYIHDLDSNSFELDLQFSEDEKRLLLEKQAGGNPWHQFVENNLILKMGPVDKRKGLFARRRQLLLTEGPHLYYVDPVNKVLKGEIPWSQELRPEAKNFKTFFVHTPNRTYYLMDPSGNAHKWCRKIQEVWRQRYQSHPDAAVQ
# Method in brief: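 PDK1 and inhibitor incubated 60 min at 30° C with 0.01 mM ATP plus 33P-γ-ATP, 0.075 mM peptide, 7.5 mM Mg acetate, 0.1 mg/ml BSA in 0.05 M Tris.HCl pH 7.5. Stopped with phosphoric acid; phosphorylated peptide captured on filter plate and counted by scintillation.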
# GST-Chk1 enzyme = target: T2, GST-Chk1 enzyme (Homo sapiens, UniProt O14757); assay: Chk1 kinase inhibition assay (33P phosphorylation of Chktide, filter plate); type: biochemical; conditions: 0.01 mM ATP, 11 nM GST-Chk1, 40 minutes at 30° C.; read-out: Chk1 IC50
# T2 sequence (O14757 1-476): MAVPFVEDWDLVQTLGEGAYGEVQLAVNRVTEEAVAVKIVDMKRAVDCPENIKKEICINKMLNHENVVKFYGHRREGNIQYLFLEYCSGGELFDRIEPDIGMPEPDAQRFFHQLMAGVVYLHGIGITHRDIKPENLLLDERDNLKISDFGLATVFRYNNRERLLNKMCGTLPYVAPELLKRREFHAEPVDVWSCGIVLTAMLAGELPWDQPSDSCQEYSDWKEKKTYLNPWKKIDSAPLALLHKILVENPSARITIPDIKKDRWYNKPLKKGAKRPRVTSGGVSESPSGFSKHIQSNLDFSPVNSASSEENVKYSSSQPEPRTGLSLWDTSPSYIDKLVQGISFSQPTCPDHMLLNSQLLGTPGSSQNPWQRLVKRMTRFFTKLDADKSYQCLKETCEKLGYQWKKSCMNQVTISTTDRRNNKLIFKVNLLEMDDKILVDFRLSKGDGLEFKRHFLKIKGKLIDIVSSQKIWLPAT
# Method in brief: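 Inhibitor and enzyme reacted 40 min at 30 °C, then stopped with 50 mM phosphoric acid. Phosphorylated peptide captured on filter plates and quantified by scintillation counting.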
# [3] = SRB assay, 4 days with drug, cell line not named, read-out: GI50
pIC50 [1],pIC50 (PDK1 enzyme),pIC50 (GST-Chk1 enzyme),Structure (SMILES),"GI50 [2, 3] [nM]",GI50 [2] [nM]
7.85,4.82,5.30,CN(C)S(=O)(=O)c1ccc(Nc2cc(O[C@H]3CC[C@H](N)CC3)nc3c(Cl)cnn23)cc1 [Example 168],210,–
7.14,5.35,6.68,CC(C)c1cnn2c(Nc3ccc(S(=O)(=O)N(C)C)cc3)cc(N[C@H]3CCNC3)nc12 [Example 194],590,–

Structure (SMILES),pIC50 [1],pIC50 (PDK1 enzyme),pIC50 (GST-Chk1 enzyme),"GI50 [2, 3] [nM]",GI50 [2] [nM]
CCN[C@H]1CC[C@H](Nc2cc(Nc3ccc(S(=O)(=O)N(C)C)cc3)n3ncc(C(C)C)c3n2)CC1 [Example 147],7.01,5.00,5.40,–,1000
